Measurements taken from patent US8853175B2, “Phenethylsulfone isoindoline derivatives and their use” (Celgene Corporation, priority 2010, dated 2014).

What was measured:
PDE 4 = PDE 4 inhibition assay; type: biochemical, human; details: crude PDE 4 enzyme from U937 cells; 1 μM cAMP; read-out: IC50 for inhibiting PDE 4
Description: PDE 4 inhibition may be assays using any methods conventionally known in the art. For example, using a modification of the method of Hill and Mitchell [Hill and Mitchell, Faseb J., 8, A217 (1994)], U937 cells (a human promonocytic cell line) are grown to 1×10^6 cells/mL and collected by centrifugation. A cell pellet of 1×10^9 cells is washed in phosphate buffered saline and then frozen at −70° C. for later purification or immediately lysed in cold homogenization buffer (20 mM Tris-HCl, pH 7.1, 3 mM 2-mercaptoethanol, 1 mM magnesium chloride, 0.1 mM ethylene glycol-bis-(β-aminoethyl ether)-N,N,N^1,N^1-tetraacetic acid (EGTA), 1 μM phenylmethylsulfonyl fluoride (PMSF), and 1 μg/mL leupeptin). Cells are homogenized with 20 strokes in a Dounce homogenizer and the supernatant containing the cytosolic fraction are obtained by centrifugation. The supernatant is then loaded onto a Sephacryl S-200 column equilibrated in homogenization buffer. […]
The phosphodiesterase assay is carried out based on the procedure described by Hill and Mitchell. […] Each data point is carried out in duplicate and activity is expressed as percentage of control. The IC50s of the compounds are then determined from dose response curves of a minimum of three independent experiments.

TNFα = TNFα inhibition assay in PBMC (LPS-stimulated); type: cell-based; details: Homo sapiens; PBMC stimulated with LPS 1 ng/ml; TNFα by ELISA; read-out: IC50 for inhibiting TNFα
Description: Peripheral blood mononuclear cells (PBMC) from normal donors are obtained by Ficoll Hypaque (Pharmacia, Piscataway, N.J., USA) density centrifugation. Cells are cultured in RPMI 1640 (Life Technologies, Grand Island, N.Y., USA) supplemented with 10% AB+human serum (Gemini Bio-products, Woodland, Calif., USA), 2 mM L-glutamine, 100 U/ml penicillin, and 100 μg/ml streptomycin (Life Technologies).
PBMC (2×10^5 cells) are plated in 96-well flat-bottom Costar tissue culture plates (Corning, N.Y., USA) in triplicate. Cells are stimulated with LPS (from Salmonella abortus equi, Sigma cat. no. L-1887, St. Louis, Mo. USA) at 1 ng/ml final in the absence or presence of compounds. Compounds provided herein are dissolved in DMSO (Sigma) and further dilutions are done in culture medium immediately before use. The final DMSO concentration in all assays can be about 0.25%. Compounds are added to cells 1 hour before LTS stimulation. Cells are then incubated for 18-20 hours at 37° C. in 5% CO2, and supernatants are then collected, diluted with culture medium and assayed for TNFα levels by ELISA (Endogen, Boston, Mass. USA). IC50s are calculated using non-linear regression, sigmoidal dose-response, constraining the top to 100% and bottom to 0%, allowing variable slope (GraphPad Prism v3.02).

IC50 (PDE 4): ~10 nM
IC50 (TNFα): ~200 nM
Structure (SMILES): CCOc1cc([C@@H](CS(C)(=O)=O)N2C(=O)c3cccc(NC(=O)CO)c3C2=O)ccc1OC [(1S)—N-{2-[1-(3-Ethoxy-4-Methoxy-Phenyl)-2-Methanesulfonyl-Ethyl]-1,3-Dioxo-2,3-Dihydro-1H-Isoindol-4-yl}-2-Hydroxy-Acetamide]
